PubChem BioAssay AID248 (DTP/NCI, 2004)
Several values for one entry are separate records, joined by “and”; a condition that tells them apart may be missing. Identical values can stand only once. Inconclusive results and toxic doses are left out. Cut-off read from the data, not from the text of the source: active = T/C of 150% or more; inactive = T/C below 125%.

Test system: L1210 leukemia ip in BDF1 mice, survival T/C
Assay: NCI In Vivo Anticancer Drug Screen. Data for tumor model L1210 Leukemia (intraperitoneal) in B6D2F1 (BDF1) mice
Settings: endpoint: mean survival time, higher = longer survival
How it was run: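 Transplantable tumor model; survival measured in treated vs vehicle control mice. Value = treated/control.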

[1] = dose: 100.0 mg/kg/injection, schedule: Q01DX001 (ip), vehicle: saline
[2] = dose: 100.0 mg/kg/injection, schedule: Q01DX009 (ip), vehicle: saline
[3] = dose: 200.0 mg/kg/injection, schedule: Q01DX001 (ip), vehicle: saline
[4] = dose: 400.0 mg/kg/injection, schedule: Q01DX001 (ip), vehicle: saline
[5] = dose: 100.0 mg/kg/injection, schedule: Q01DX001 (ip), vehicle: other
[6] = dose: 200.0 mg/kg/injection, schedule: Q01DX001 (ip), vehicle: other
[7] = dose: 50.0 mg/kg/injection, schedule: Q01DX001 (ip), vehicle: carboxymethylcellulose (CMC)
[8] = dose: 100.0 mg/kg/injection, schedule: Q01DX001 (ip), vehicle: carboxymethylcellulose (CMC)
[9] = dose: 100.0 mg/kg/injection, schedule: Q01DX009 (ip), vehicle: saline with Tween-80
[10] = dose: 100.0 mg/kg/injection, schedule: Q04DX003 (ip), vehicle: other
[11] = dose: 200.0 mg/kg/injection, schedule: Q01DX009 (ip), vehicle: saline with Tween-80
[12] = dose: 200.0 mg/kg/injection, schedule: Q04DX003 (ip), vehicle: other
[13] = dose: 50.0 mg/kg/injection, schedule: Q01DX009 (ip), vehicle: saline with Tween-80
[14] = dose: 100.0 mg/kg/injection, schedule: Q04DX003 (ip), vehicle: saline with Tween-80
[15] = dose: 200.0 mg/kg/injection, schedule: Q04DX003 (ip), vehicle: saline with Tween-80
[16] = dose: 400.0 mg/kg/injection, schedule: Q04DX003 (ip), vehicle: saline with Tween-80
[17] = dose: 100.0 mg/kg/injection, schedule: Q04DX003 (ip), vehicle: Klucel (hydroxypropylcellulose) (HPC)
[18] = dose: 100.0 mg/kg/injection, schedule: Q04DX002 (ip), vehicle: Klucel (hydroxypropylcellulose) (HPC)
[19] = dose: 200.0 mg/kg/injection, schedule: Q04DX002 (ip), vehicle: Klucel (hydroxypropylcellulose) (HPC)
[20] = dose: 400.0 mg/kg/injection, schedule: Q04DX002 (ip), vehicle: Klucel (hydroxypropylcellulose) (HPC)
[21] = dose: 200.0 mg/kg/injection, schedule: Q04DX003 (ip), vehicle: Klucel (hydroxypropylcellulose) (HPC)
[22] = dose: 400.0 mg/kg/injection, schedule: Q04DX003 (ip), vehicle: Klucel (hydroxypropylcellulose) (HPC)

Measured: T/C

COC(O)C(Cl)(Cl)Cl (centres undefined)
inactive: [1] 101 % of control | [2] 97 % of control | dose: 100.0 mg/kg/injection, schedule: Q04DX003 (ip), vehicle: saline 96 % of control | [3] 97 % of control | dose: 200.0 mg/kg/injection, schedule: Q01DX009 (ip), vehicle: saline 103 % of control | dose: 200.0 mg/kg/injection, schedule: Q04DX003 (ip), vehicle: saline 100 % of control | [4] 109 % of control | dose: 400.0 mg/kg/injection, schedule: Q01DX009 (ip), vehicle: saline 103 % of control | dose: 400.0 mg/kg/injection, schedule: Q04DX003 (ip), vehicle: saline 104 % of control

CC(=O)OC1CCC(N)CC1 (centres undefined)
inactive: [5] 98 % of control | [6] 96 % of control | dose: 400.0 mg/kg/injection, schedule: Q01DX001 (ip), vehicle: other 96 % of control

Cc1cc(N(CCCl)CCCl)ccc1C=Nc1ccc(S(N)(=O)=O)cc1
inactive: [7] 95 % of control | [8] 104 % of control | dose: 200.0 mg/kg/injection, schedule: Q01DX001 (ip), vehicle: carboxymethylcellulose (CMC) 101 % of control | dose: 400.0 mg/kg/injection, schedule: Q01DX001 (ip), vehicle: carboxymethylcellulose (CMC) 104 % of control

Brc1cccc[n+]1Cc1ccc(C[n+]2ccccc2Br)cc1
inactive: dose: 2.66 mg/kg/injection, schedule: Q01DX Z (ip), vehicle: saline 98 % of control

O=C(O)c1ccc([N+](=O)[O-])o1
inactive: [9] 89 % of control | [10] 100 % of control | [11] 97 % of control | [12] 96 % of control

CCCCCCCCCCCCCCCCCCNC(=S)N/N=C/c1ccc(Cl)cc1Cl
inactive: dose: 50.0 mg/kg/injection, schedule: Q04DX003 (ip), vehicle: other 91 % of control | [5] 95 % of control | [10] 96 % of control | [6] 86 % of control and 92 % of control | [12] 93 % of control

CCC1CC2c3cc(OC)c(OC)cc3CCN2CC1(O)c1ccccc1 (centres undefined)
inactive: dose: 25.0 mg/kg/injection, schedule: Q01DX001 (ip), vehicle: carboxymethylcellulose (CMC) 92 % of control | dose: 25.0 mg/kg/injection, schedule: Q04DX003 (ip), vehicle: carboxymethylcellulose (CMC) 97 % of control | [7] 95 % of control | dose: 50.0 mg/kg/injection, schedule: Q04DX003 (ip), vehicle: carboxymethylcellulose (CMC) 97 % of control | [8] 103 % of control and 109 % of control | dose: 100.0 mg/kg/injection, schedule: Q04DX003 (ip), vehicle: carboxymethylcellulose (CMC) 100 % of control

C1CN2CCC1CC2
inactive: dose: 10.0 mg/kg/injection, schedule: Q01DX001 (ip), vehicle: saline 93 % of control | [13] 98 % of control | [9] 97 % of control | [14] 106 % of control | [15] 93 % of control

CC(=O)OCC(=O)[C@@]1(O)CC[C@H]2[C@@H]3C[C@H](C)C4=CC(=O)C=C[C@]4(C)[C@@]3(Br)[C@@H](O)C[C@@]21C
inactive: dose: 50.0 mg/kg/injection, schedule: Q01DX001 (sc), vehicle: steriod suspending solution 101 % of control | dose: 100.0 mg/kg/injection, schedule: Q01DX001 (sc), vehicle: steriod suspending solution 109 % of control | dose: 200.0 mg/kg/injection, schedule: Q01DX001 (sc), vehicle: steriod suspending solution 106 % of control | dose: 400.0 mg/kg/injection, schedule: Q01DX001 (sc), vehicle: steriod suspending solution 104 % of control

CC/C=C(/C)CCC
inactive: [14] 93 % of control | [15] 93 % of control | [16] 98 % of control

CN(C(=N)N)c1ccc(C(=O)Oc2ccc([N+](=O)[O-])cc2)cc1
inactive: dose: 50.0 mg/kg/injection, schedule: Q01DX009 (ip), vehicle: water 90 % of control | dose: 100.0 mg/kg/injection, schedule: Q01DX009 (ip), vehicle: water 97 % of control and 105 % of control | dose: 100.0 mg/kg/injection, schedule: Q04DX003 (ip), vehicle: water 103 % of control | dose: 200.0 mg/kg/injection, schedule: Q01DX009 (ip), vehicle: water 96 % of control and 100 % of control | dose: 200.0 mg/kg/injection, schedule: Q04DX003 (ip), vehicle: water 100 % of control

CN(C)c1ccc(C(=C2C=CC(=[N+](C)C)C=C2)c2ccccc2Cl)cc1
inactive: dose: 50.0 mg/kg/injection, schedule: Q01DX001 (ip), vehicle: saline 92 % of control | [1] 92 % of control

CCOC(=O)c1cc(OCC)nc(SC)n1
inactive: dose: 25.0 mg/kg/injection, schedule: Q01DX Z (ip), vehicle: methylcellulose (MC) 86 % of control | dose: 50.0 mg/kg/injection, schedule: Q01DX Z (ip), vehicle: methylcellulose (MC) 100 % of control

C=CCOc1cc[n+]([O-])cc1
inactive: [1] 100 % of control | [3] 105 % of control

C=CCOC(=O)Nc1cccc(OC(=O)NC(C)(C)C)c1
inactive: [14] 105 % of control | [15] 99 % of control | [16] 98 % of control

COC(=O)C(=O)c1c(O)n(-c2ccccc2)c2ccccc12
inactive: dose: 25.0 mg/kg/injection, schedule: Q04DX003 (ip), vehicle: Klucel (hydroxypropylcellulose) (HPC) 101 % of control | dose: 50.0 mg/kg/injection, schedule: Q04DX003 (ip), vehicle: Klucel (hydroxypropylcellulose) (HPC) 101 % of control | [17] 98 % of control

CSc1cccc(Cl)c1
inactive: dose: 75.0 mg/kg/injection, schedule: Q01DX001 (ip), vehicle: saline 100 % of control | dose: 150.0 mg/kg/injection, schedule: Q01DX001 (ip), vehicle: saline 101 % of control

OCCN(CCO)c1cc(O)cc(O)c1
inactive: [9] 98 % of control | [14] 98 % of control | [11] 96 % of control | [15] 91 % of control | dose: 400.0 mg/kg/injection, schedule: Q01DX009 (ip), vehicle: saline with Tween-80 96 % of control | [16] 102 % of control

CC(=O)CC(=O)Nc1cccc(Br)c1
inactive: [14] 102 % of control | [15] 97 % of control | [16] 97 % of control

CCCCCSB(SCCCCC)c1ccccc1
inactive: [1] 89 % of control | [3] 89 % of control | [4] 92 % of control

CCC(O)(c1ccccc1)c1ccccc1
inactive: [14] 103 % of control | [15] 99 % of control | [16] 98 % of control

Nc1nc(N)c2nc(CNc3ccc(Cl)cc3)cnc2n1
inactive: dose: 20.0 mg/kg/injection, schedule: Q01DX009 (ip), vehicle: Klucel (hydroxypropylcellulose) (HPC) 96 % of control | dose: 40.0 mg/kg/injection, schedule: Q01DX009 (ip), vehicle: Klucel (hydroxypropylcellulose) (HPC) 96 % of control | dose: 80.0 mg/kg/injection, schedule: Q01DX009 (ip), vehicle: Klucel (hydroxypropylcellulose) (HPC) 104 % of control

ClC(Cl)C1OCCOCCO1
inactive: [18] 97 % of control | [19] 100 % of control | [20] 97 % of control

O=C(O)C1C(C(=O)O)C2(Cl)C(Cl)=C(Cl)C1(Cl)C2(Cl)Cl.[Mn] (centres undefined)
inactive: dose: 44.0 mg/kg/injection, schedule: Q01DX009 (ip), vehicle: saline 107 % of control | dose: 50.0 mg/kg/injection, schedule: Q01DX009 (ip), vehicle: saline sonified 114 % of control | dose: 66.0 mg/kg/injection, schedule: Q01DX009 (ip), vehicle: saline 105 % of control | [2] 105 % of control | [17] 97 % of control | dose: 150.0 mg/kg/injection, schedule: Q01DX009 (ip), vehicle: saline 112 % of control | dose: 200.0 mg/kg/injection, schedule: Q01DX009 (ip), vehicle: saline sonified 104 % of control | [21] 95 % of control

CCOC(=O)CNc1cccc(Cl)c1
inactive: [18] 107 % of control | [19] 103 % of control | [20] 96 % of control

N=C1SCc2c1sc1ccccc21
inactive: [17] 117 % of control | [21] 104 % of control | [22] 103 % of control

O=C(CNC(=O)NCc1ccccc1)NNC(=O)Nc1cccc(C(F)(F)F)c1
inactive: [13] 102 % of control | [9] 87 % of control | [11] 91 % of control

O=[N+]([O-])c1cc(Cl)cc2c1-c1ccc(Cl)cc1C2
inactive: [17] 98 % of control | [21] 98 % of control | [22] 98 % of control
